Assay results taken from PubChem BioAssay AID248 (DTP/NCI, 2004).
Where “and” joins values, the source holds several entries; their conditions need not be identical. Identical values can stand only once. Inconclusive results and toxic doses are left out. Cut-off read from the data, not from the text of the source: active = T/C of 150% or more; inactive = T/C below 125%.

Tested on: L1210 leukemia ip in BDF1 mice, survival T/C
Test: NCI In Vivo Anticancer Drug Screen. Data for tumor model L1210 Leukemia (intraperitoneal) in B6D2F1 (BDF1) mice
Details: endpoint: mean survival time, higher = longer survival
Outline: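 Antitumor effect is assessed in tumor-bearing animals. Survival in the compound arm is compared with a vehicle-dosed control arm and expressed as their quotient.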

[1] = dose: 100.0 mg/kg/injection, schedule: Q01DX009 (ip), vehicle: Klucel (hydroxypropylcellulose) (HPC)
[2] = dose: 200.0 mg/kg/injection, schedule: Q01DX009 (ip), vehicle: Klucel (hydroxypropylcellulose) (HPC)
[3] = dose: 400.0 mg/kg/injection, schedule: Q01DX009 (ip), vehicle: Klucel (hydroxypropylcellulose) (HPC)
[4] = dose: 100.0 mg/kg/injection, schedule: Q01DX009 (ip), vehicle: saline with Tween-80
[5] = dose: 200.0 mg/kg/injection, schedule: Q01DX009 (ip), vehicle: saline with Tween-80
[6] = dose: 100.0 mg/kg/injection, schedule: Q01DX001 (ip), vehicle: saline with Tween-80
[7] = dose: 200.0 mg/kg/injection, schedule: Q01DX001 (ip), vehicle: saline with Tween-80
[8] = dose: 400.0 mg/kg/injection, schedule: Q01DX001 (ip), vehicle: saline with Tween-80
[9] = dose: 400.0 mg/kg/injection, schedule: Q01DX009 (ip), vehicle: saline with Tween-80

Measured: T/C

CN=C(c1ccc(NC(=O)c2ccc(C(=O)Nc3ccc(C(=NC)N(C)C(C)=O)cc3)cc2)cc1)N(C)C(C)=O
inactive: dose: 4.0 mg/kg/injection, schedule: Q01DX Z (ip), vehicle: carboxymethylcellulose (CMC) 98 % of control | dose: 6.0 mg/kg/injection, schedule: Q01DX Z (ip), vehicle: carboxymethylcellulose (CMC) 104 % of control | dose: 8.0 mg/kg/injection, schedule: Q01DX Z (ip), vehicle: carboxymethylcellulose (CMC) 90 % of control | dose: 10.0 mg/kg/injection, schedule: Q01DX Z (ip), vehicle: carboxymethylcellulose (CMC) 101 % of control | dose: 12.5 mg/kg/injection, schedule: Q01DX Z (ip), vehicle: carboxymethylcellulose (CMC) 110 % of control | dose: 50.0 mg/kg/injection, schedule: Q01DX Z (ip), vehicle: carboxymethylcellulose (CMC) 87 % of control

CCOP(=S)(S)OCC.[Pd]
inactive: dose: 12.5 mg/kg/injection, schedule: Q01DX009 (ip), vehicle: other 95 % of control | dose: 25.0 mg/kg/injection, schedule: Q01DX009 (ip), vehicle: other 95 % of control | dose: 50.0 mg/kg/injection, schedule: Q01DX001 (ip), vehicle: saline 96 % of control | dose: 100.0 mg/kg/injection, schedule: Q01DX001 (ip), vehicle: saline 100 % of control | dose: 200.0 mg/kg/injection, schedule: Q01DX001 (ip), vehicle: saline 100 % of control | dose: 400.0 mg/kg/injection, schedule: Q01DX001 (ip), vehicle: saline 100 % of control

CCc1c(N)nc(N)nc1Nc1ccc(C)cc1
inactive: dose: 6.0 mg/kg/injection, schedule: Q01DX Z (ip), vehicle: methylcellulose (MC) 95 % of control | dose: 12.0 mg/kg/injection, schedule: Q01DX Z (ip), vehicle: methylcellulose (MC) 97 % of control

Cc1cccc(NC(=S)N2CCOCC2)c1
inactive: dose: 87.5 mg/kg/injection, schedule: Q01DX009 (ip), vehicle: Klucel (hydroxypropylcellulose) (HPC) 110 % of control | dose: 175.0 mg/kg/injection, schedule: Q01DX009 (ip), vehicle: Klucel (hydroxypropylcellulose) (HPC) 100 % of control | dose: 350.0 mg/kg/injection, schedule: Q01DX009 (ip), vehicle: Klucel (hydroxypropylcellulose) (HPC) 108 % of control

CCc1c(C=O)[nH]c(=S)n(C)c1=O
inactive: dose: 100.0 mg/kg/injection, schedule: Q01DX001 (ip), vehicle: Klucel (hydroxypropylcellulose) (HPC) 104 % of control | [1] 108 % of control | dose: 200.0 mg/kg/injection, schedule: Q01DX001 (ip), vehicle: Klucel (hydroxypropylcellulose) (HPC) 98 % of control | [2] 88 % of control | dose: 400.0 mg/kg/injection, schedule: Q01DX001 (ip), vehicle: Klucel (hydroxypropylcellulose) (HPC) 101 % of control | [3] 98 % of control

C=CCC(OC(=O)Nc1ccc(Cl)cc1)C1OC(c2ccccc2)OC2COC(c3ccccc3)OC21 (configuration not stated)
inactive: dose: 100.0 mg/kg/injection, schedule: Q01DX001 (ip), vehicle: gum acacia 91 % of control | dose: 200.0 mg/kg/injection, schedule: Q01DX001 (ip), vehicle: gum acacia 91 % of control | dose: 400.0 mg/kg/injection, schedule: Q01DX001 (ip), vehicle: gum acacia 93 % of control

CC1(C)CN=C(SC(=O)c2ccc([N+](=O)[O-])cc2)S1
inactive: dose: 100.0 mg/kg/injection, schedule: Q04DX002 (ip), vehicle: gum acacia 100 % of control | dose: 200.0 mg/kg/injection, schedule: Q04DX002 (ip), vehicle: gum acacia 93 % of control | dose: 400.0 mg/kg/injection, schedule: Q04DX002 (ip), vehicle: gum acacia 93 % of control

C=CSc1ccccc1
inactive: [4] 105 % of control | [5] 93 % of control

CCC(=O)NCC(=O)O
inactive: dose: 6.25 mg/kg/injection, schedule: Q01DX009 (ip), vehicle: saline 103 % of control | dose: 6.25 mg/kg/injection, schedule: Q04DX003 (ip), vehicle: saline 96 % of control | dose: 12.5 mg/kg/injection, schedule: Q01DX009 (ip), vehicle: saline 95 % of control | dose: 12.5 mg/kg/injection, schedule: Q04DX003 (ip), vehicle: saline 96 % of control | dose: 25.0 mg/kg/injection, schedule: Q01DX009 (ip), vehicle: saline 92 % of control | dose: 25.0 mg/kg/injection, schedule: Q04DX003 (ip), vehicle: saline 100 % of control

CCCc1nc2c(OC)ccc(OC)c2nc1C
inactive: dose: 12.5 mg/kg/injection, schedule: Q01DX009 (ip), vehicle: Klucel (hydroxypropylcellulose) (HPC) 98 % of control | dose: 25.0 mg/kg/injection, schedule: Q01DX009 (ip), vehicle: Klucel (hydroxypropylcellulose) (HPC) 97 % of control | dose: 50.0 mg/kg/injection, schedule: Q01DX009 (ip), vehicle: Klucel (hydroxypropylcellulose) (HPC) 92 % of control | [1] 94 % of control | dose: 100.0 mg/kg/injection, schedule: Q04DX003 (ip), vehicle: acetone 97 % of control | [2] 86 % of control | dose: 200.0 mg/kg/injection, schedule: Q04DX003 (ip), vehicle: acetone 97 % of control | dose: 400.0 mg/kg/injection, schedule: Q04DX003 (ip), vehicle: acetone 98 % of control

CNC(=O)/C(=C\c1ccccc1)NC(C)=O
inactive: [6] 91 % of control | [7] 107 % of control | [8] 100 % of control

C=CC(=O)[O][Pb]([CH2]C)([CH2]C)[CH2]C
inactive: dose: 12.5 mg/kg/injection, schedule: Q04DX002 (ip), vehicle: Klucel (hydroxypropylcellulose) (HPC) 86 % of control

N#CCc1[nH]cnc1C#N
inactive: dose: 100.0 mg/kg/injection, schedule: Q04DX003 (ip), vehicle: water 100 % of control and 111 % of control and 115 % of control | dose: 200.0 mg/kg/injection, schedule: Q04DX003 (ip), vehicle: water 95 % of control and 115 % of control | dose: 300.0 mg/kg/injection, schedule: Q04DX003 (ip), vehicle: water 113 % of control | dose: 400.0 mg/kg/injection, schedule: Q04DX003 (ip), vehicle: water 100 % of control (2×) and 122 % of control

CN1C2CC(=O)CC1C1CCC2C1
inactive: dose: 15.0 mg/kg/injection, schedule: Q01DX001 (ip), vehicle: carboxymethylcellulose (CMC) 103 % of control | dose: 30.0 mg/kg/injection, schedule: Q01DX001 (ip), vehicle: carboxymethylcellulose (CMC) 101 % of control

CS(=O)c1ccc(/C=C2/C=Cc3ccccc32)cc1 (configuration not stated)
inactive: [1] 91 % of control | [2] 103 % of control | [3] 101 % of control

CC(C)CCOC(=O)c1ccccc1OC(=O)Nc1ccc(Cl)cc1[N+](=O)[O-]
inactive: [6] 102 % of control | [4] 99 % of control and 89 % of control | dose: 100.0 mg/kg/injection, schedule: Q04DX002 (ip), vehicle: saline with Tween-80 94 % of control and 103 % of control | dose: 100.0 mg/kg/injection, schedule: Q04DX003 (ip), vehicle: saline with Tween-80 91 % of control | [7] 90 % of control | [5] 86 % of control and 89 % of control | dose: 200.0 mg/kg/injection, schedule: Q04DX002 (ip), vehicle: saline with Tween-80 97 % of control and 88 % of control | dose: 200.0 mg/kg/injection, schedule: Q04DX003 (ip), vehicle: saline with Tween-80 91 % of control | [8] 88 % of control | [9] 89 % of control | dose: 400.0 mg/kg/injection, schedule: Q04DX002 (ip), vehicle: saline with Tween-80 100 % of control and 104 % of control | dose: 400.0 mg/kg/injection, schedule: Q04DX003 (ip), vehicle: saline with Tween-80 99 % of control

CCc1cc(CC)c(/C(Cl)=C/C(=O)NCC(=O)O)c(CC)c1Br
inactive: dose: 75.0 mg/kg/injection, schedule: Q04DX003 (ip), vehicle: Klucel (hydroxypropylcellulose) (HPC) 95 % of control | dose: 150.0 mg/kg/injection, schedule: Q04DX003 (ip), vehicle: Klucel (hydroxypropylcellulose) (HPC) 93 % of control | dose: 300.0 mg/kg/injection, schedule: Q04DX003 (ip), vehicle: Klucel (hydroxypropylcellulose) (HPC) 87 % of control

C/C(=C\c1ccc2ccccc2c1)[N+](=O)[O-]
inactive: dose: 75.0 mg/kg/injection, schedule: Q01DX001 (ip), vehicle: saline 108 % of control | dose: 150.0 mg/kg/injection, schedule: Q01DX001 (ip), vehicle: saline 100 % of control | dose: 300.0 mg/kg/injection, schedule: Q01DX001 (ip), vehicle: saline 105 % of control

CCCn1c(=O)cc(/C=N/Nc2ccc([N+](=O)[O-])cc2[N+](=O)[O-])c2ccccc21
inactive: [6] 90 % of control | [7] 90 % of control | [8] 90 % of control

N#CCCP(=O)(CCC#N)CCCCCCP(=O)(CCC#N)CCC#N
inactive: [4] 90 % of control | [5] 90 % of control | [9] 89 % of control
